Biological target: GABA-A receptor; anion channel
Assay: Displacement of [3H]flunitrazepam from GABA-A benzodiazepine receptor in synaptic membranes of rat cerebral cortex
Type: cell membranes

Compound	IC50
Cc1n[nH]c2c1N=C(c1ccccc1)CNC2=O	4.4 µM
COc1ccc(C2=Nc3c(C)n[nH]c3C(=O)NC2)cc1	46.5 µM
Cc1n[nH]c2c1N=C(c1ccc(Cl)cc1)CNC2=O	10 µM
Cc1n[nH]c2c1N=C(c1ccc(-c3ccccc3)cc1)CNC2=O	> 100 µM
Cc1n[nH]c2c1N=C(c1ccc([N+](=O)[O-])cc1)CNC2=O	30.5 µM
Cc1n[nH]c2c1N=C(c1ccc(Br)cc1)CNC2=O	22.3 µM
CNC1=Nc2ccc(Cl)cc2C(c2ccccc2)=[N+]([O-])C1 [CHLORDIAZEPOXIDE]	0.91 µM
CCn1nc(C)c2c1C(c1ccccc1)=NCC(=O)N2 [RIPAZEPAM]	0.67 µM

Source: ChEMBL document CHEMBL1123003, “Synthesis and interaction of 5-(substituted-phenyl)-3-methyl-6,7-dihydropyrazolo[4,3-e] [1,4]diazepin-8(7H)-ones with benzodiazepine receptors in rat cerebral cortex” (J Med Chem, 1985)
